# Source: EPA's CvTdb concentration-time database
# Key:
# Rat [1] = test: concentration in plasma after dosing; conditions: dosed: Wyeth-14643, 1.0 mg/kg, oral, Male, Sprague-Dawley
# Rat [2] = test: concentration in heart after dosing; conditions: 40 min; dosed: Bis 2-Chloroethoxy Methane; 20 mg/kg; iv; Female; F344
# Rat [3] = test: concentration in thymus after dosing; conditions: 1 h; dosed: Bis 2-Chloroethoxy Methane; 20 mg/kg; iv; Female; F344
# Rat [4] = test: concentration in thymus after dosing; conditions: 10 min; dosed: Bis 2-Chloroethoxy Methane; 20 mg/kg; iv; Female; F344
# Rat [5] = test: concentration in plasma after dosing; conditions: 5 h; dosed: Bis 2-Chloroethoxy Methane; 20 mg/kg; iv; Male; F344
# Rat [6] = test: concentration in thymus after dosing; conditions: 40 min; dosed: Bis 2-Chloroethoxy Methane; 20 mg/kg; iv; Male; F344
# Rat [7] = test: concentration in liver after dosing; conditions: 40 min; dosed: Bis 2-Chloroethoxy Methane; 20 mg/kg; iv; Female; F344
# Rat [8] = test: concentration in kidney after dosing; conditions: 6 h; dosed: Fluorotelomer alcohol 8+2; 24 mg/kg; oral; Male; Harlan Sprague Dawley
# Rat [9] = test: concentration in kidney after dosing; conditions: 1 h; dosed: Fluorotelomer alcohol 8+2; 80 mg/kg; oral; Female; Harlan Sprague Dawley
# Rat [10] = test: concentration in plasma after dosing; conditions: dosed: Fluorotelomer alcohol 8+2, 12 mg/kg, oral, Male, Harlan Sprague Dawley
# Rat [11] = test: concentration in plasma after dosing; conditions: dosed: Fluorotelomer alcohol 8+2, 12 mg/kg, iv, Male, F344
# Rat [12] = test: concentration in plasma after dosing; conditions: 15 h; dosed: Di-n-butyl phthalate; 50 mg/kg; oral; Male; Sprague-Dawley
# Rat [13] = test: concentration in plasma after dosing; conditions: 1 h; dosed: Di-n-butyl phthalate; 20 mg/kg; iv; Male; Sprague-Dawley
# Rat [14] = test: concentration in plasma after dosing; conditions: 0.5 h; dosed: Di-n-butyl phthalate; 50 mg/kg; oral; Male; Sprague-Dawley
# Rat [15] = test: concentration in plasma after dosing; conditions: 4 h; dosed: Di-n-butyl phthalate; 20 mg/kg; iv; Male; Sprague-Dawley
# Rat [16] = test: concentration in plasma after dosing; conditions: 10 min; dosed: Di-n-butyl phthalate; 20 mg/kg; iv; Male; Sprague-Dawley
# Rat [17] = test: concentration in plasma after dosing; conditions: 15 h; dosed: Di-n-butyl phthalate; 100 mg/kg; oral; Male; Sprague-Dawley
# Rat [18] = test: concentration in plasma after dosing; conditions: 10 min; dosed: Di-n-butyl phthalate; 50 mg/kg; oral; Male; Sprague-Dawley
# Rat [19] = test: concentration in plasma after dosing; conditions: 0.5 h; dosed: Di-n-butyl phthalate; 100 mg/kg; oral; Male; Sprague-Dawley
# Rat [20] = test: concentration in plasma after dosing; conditions: 5 min; dosed: Di-n-butyl phthalate; 50 mg/kg; oral; Male; Sprague-Dawley
# Rat [21] = test: concentration in plasma after dosing; conditions: dosed: Perfluorodecanoic acid, 2 mg/kg, iv, Male, F344
# Rat [22] = test: concentration in kidney after dosing; conditions: 24 h; dosed: Perfluorodecanoic acid; 10 mg/kg; oral; Female; Harlan Sprague Dawley
# Rat [23] = test: concentration in kidney after dosing; conditions: 864 h; dosed: Perfluorodecanoic acid; 10 mg/kg; oral; Female; Harlan Sprague Dawley
# Rat [24] = test: concentration in plasma after dosing; conditions: 1.5 h; dosed: Primidone; 30 mg/kg; oral; Male; F344
# Rat [25] = test: concentration in plasma after dosing; conditions: 12 h; dosed: Primidone; 30 mg/kg; oral; Female; F344
# Rat [26] = test: concentration in liver after dosing; conditions: 6.667 h; dosed: Thiodiglycolic Acid; 20 mg/kg; iv; Female; Harlan Sprague Dawley
# Rat [27] = test: concentration in heart after dosing; conditions: 40 min; dosed: Thiodiglycolic Acid; 20 mg/kg; iv; Male; Harlan Sprague Dawley
# Rat [28] = test: concentration in thymus after dosing; conditions: 2 h; dosed: Thiodiglycolic Acid; 20 mg/kg; iv; Female; Harlan Sprague Dawley
# Rat [29] = test: concentration in liver after dosing; conditions: 4 h; dosed: Thiodiglycolic Acid; 20 mg/kg; iv; Female; Harlan Sprague Dawley
# Rat [30] = test: concentration in thymus after dosing; conditions: 40 min; dosed: Thiodiglycolic Acid; 20 mg/kg; iv; Male; Harlan Sprague Dawley
# Rat [31] = test: concentration in liver after dosing; conditions: 5.333 h; dosed: Thiodiglycolic Acid; 20 mg/kg; iv; Male; Harlan Sprague Dawley
# Rat [32] = test: concentration in heart after dosing; conditions: 1 h; dosed: Thiodiglycolic Acid; 20 mg/kg; iv; Female; Harlan Sprague Dawley
# Rat [33] = test: concentration in plasma after dosing; conditions: 10 min; dosed: Thiodiglycolic Acid; 20 mg/kg; iv; Male; F344
# Rat [34] = test: concentration in liver after dosing; conditions: 1 h; dosed: Thiodiglycolic Acid; 20 mg/kg; iv; Male; Harlan Sprague Dawley
# Rat [35] = test: concentration in heart after dosing; conditions: 10 min; dosed: Thiodiglycolic Acid; 20 mg/kg; iv; Male; F344
# Rat [36] = test: concentration in liver after dosing; conditions: 8 h; dosed: Thiodiglycolic Acid; 20 mg/kg; iv; Female; Harlan Sprague Dawley
# Rat [37] = test: concentration in plasma after dosing; conditions: 40 min; dosed: dichloroacetic acid; 100 mg/kg; oral; Male; F344
# Rat [38] = test: concentration in plasma after dosing; conditions: dosed: dichloroacetic acid, 10 mg/kg, oral, Male, Harlan Sprague Dawley
structure (smiles),measurement,setting,value
Cc1cccc(Nc2cc(Cl)nc(SCC(=O)O)n2)c1C,concentration in plasma,Rat [1]; 0.25 h,341 ng/mL
same,concentration in plasma,Rat [1]; 4 h,214 ng/mL
ClCCOCOCCCl [Bis 2-Chloroethoxy Methane],concentration in heart,Rat [2],3630 ng/g
same,concentration in thymus,Rat [3],2300 ng/g
same,concentration in thymus,Rat [4],50600 ng/g
same,concentration in plasma,Rat [5],36.5 ng/mL
same,concentration in thymus,Rat [6],4530 ng/g
same,concentration in liver,Rat [7],636 ng/g
OCCC(F)(F)C(F)(F)C(F)(F)C(F)(F)C(F)(F)C(F)(F)C(F)(F)C(F)(F)F [Fluorotelomer alcohol 8+2],concentration in kidney,Rat [8],271 ng/g
same,concentration in kidney,Rat [9],3330 ng/g
same,concentration in plasma,Rat [10]; 0.25 h,253 ng/mL
same,concentration in plasma,Rat [10]; 6 h,40.7 ng/mL
same,concentration in plasma,Rat [11]; 0.25 h,1710 ng/mL
same,concentration in plasma,Rat [11]; 24 h,3.59 ng/mL
CCCCOC(=O)c1ccccc1C(=O)O [Mono-n-butyl phthalate],concentration in plasma,Rat [12],530 ng/mL
same,concentration in plasma,Rat [13],3480 ng/mL
same,concentration in plasma,Rat [14],21100 ng/mL
same,concentration in plasma,Rat [15],678 ng/mL
same,concentration in plasma,Rat [16],28800 ng/mL
same,concentration in plasma,Rat [17],900 ng/mL
same,concentration in plasma,Rat [18],8110 ng/mL
same,concentration in plasma,Rat [19],29700 ng/mL
same,concentration in plasma,Rat [20],4780 ng/mL
O=C(O)C(F)(F)C(F)(F)C(F)(F)C(F)(F)C(F)(F)C(F)(F)C(F)(F)C(F)(F)C(F)(F)F [Perfluorodecanoic acid],concentration in plasma,Rat [21]; 1 h,5930 ng/mL
same,concentration in plasma,Rat [21]; 528 h,2060 ng/mL
same,concentration in plasma,Rat [21]; 3360 h,272 ng/mL
same,concentration in kidney,Rat [22],67300 ng/g
same,concentration in kidney,Rat [23],18600 ng/g
CCC1(c2ccccc2)C(=O)NC(=O)NC1=O [Phenobarbital],concentration in plasma,Rat [24],1940 ng/mL
same,concentration in plasma,Rat [25],930 ng/mL
O=C(O)CSCC(=O)O [Thiodiglycolic Acid],concentration in liver,Rat [26],1600 ng/g
same,concentration in heart,Rat [27],2020 ng/g
same,concentration in thymus,Rat [28],2180 ng/g
same,concentration in liver,Rat [29],3490 ng/g
same,concentration in thymus,Rat [30],3410 ng/g
same,concentration in liver,Rat [31],22900 ng/g
same,concentration in heart,Rat [32],1530 ng/g
same,concentration in plasma,Rat [33],25400 ng/mL
same,concentration in liver,Rat [34],126000 ng/g
same,concentration in heart,Rat [35],8210 ng/g
same,concentration in liver,Rat [36],60900 ng/g
O=C(O)C(Cl)Cl [dichloroacetic acid],concentration in plasma,Rat [37],39400 ng/mL
same,concentration in plasma,Rat [38]; 10 min,438 ng/mL
same,concentration in plasma,Rat [38]; 50 min,158 ng/mL
